Data: patent US20240358693A1, “METHODS OF TREATING PAIN” (Aisa Pharma, Inc., priority 2023, published 2024)

Tested on: participants with SSc-RP
Assay: Scleroderma Health Assessment Questionnaire (SHAQ): disability indices and visual analog scales
Assay type: in vivo, human
Conditions: Day 12 vs baseline; PP Population, Part A; SSc patients; sensitivity analysis
Excerpt: The standard, validated, patient reported outcome measures tool for SSc patients, the Scleroderma Health Assessment Questionnaire (SHAQ), will be used to assess the participant qualify of life. Details are attached in the Appendix. The participant quality of life will be scored, and a disability index calculated for each questionnaire completed by the patient at Screening and each in-clinic visit. The absolute change in participant quality of life from baseline to the end of each dosing period will be calculated similar to frequency data as before.
The SHAQ includes a Raynaud's VAS, which will be reported at screening and each in-clinic visit. The absolute change in Raynaud-VAS, assessed by the participants response to the SHAQ question ‘In the past 7 days, how much have your Raynaud's interfered with your daily activities?’ at baseline and the end of each dosing period will be calculated similar to frequency data as before.
The SHAQ is used to calculate a Disability Index to assess the participant qualify of life. The eight categories assessed by the Disability Index are 1) dressing and grooming, 2) arising, 3) eating, 4) walking, 5) hygiene, 6) reach, 7) grip, and 8) common daily activities. For each of these categories, patients report the amount of difficulty they have in performing two or three specific activities.
There are four possible responses for the Disability Index questions: • Without any difficulty=0 • With some difficulty=1 • With much difficulty=2 • Unable to do=3. • The highest score reported by the patient for any component question of the eight categories determines the score for that category. • If a component question is left blank or the response is too ambiguous to assign a score, then the score for that category is determined by the remaining completed question(s). • If all component questions are blank or if more than one answer is given, then follow up with the respondent is required. • If the respondent's mark is between the response columns, then move it to the closest one. If it's directly between the two, move it to the higher one.
Each of the disability items on the SHAQ has a companion aids/devices variable that is used to record what type(s) of assistance, if any, the participant uses for his/her usual activities. These variables (see below) are coded as follows: • 0=No assistance is needed. • 1=A special device is used by the patient in his/her usual activities. • 2=The patient usually needs help from another person. • 3=The patient usually needs BOTH a special device AND help from another person.
The scoring variables and scoring rules permit the computation of two disability indices, the Standard Disability Index and the Alternative Disability Index.
This question results in a new set of category scores that are computed by adjusting the score for each category, if necessary, based on the patient's use of an aid or device or assistance for that category. If either devices and/or help from another person are checked for a category, the score is set to “2”, unless the score is already “3” (i.e., scores of “0” or “1” are increased to “2”). For example, if the highest score for the dressing category is “1”, and the patient says they use a device for dressing, the computed category score would be “2”. The sum of the computed categories scores is then calculated and divided by the number of categories answered. This gives a score in the 0 to 3 range.
The aid and device variables are not used to calculate the alternative disability index; it is calculated by adding the scores for each of the categories and dividing by the number of categories answered. This gives a score in the 0 to 3 range.
The standard, validated, patient reported outcome measures tool for SSc patients, the SHAQ, was collected at the time points specified in the study schedules (FIG. 2 and FIGS. 4A and 4B) to assess the participant's quality of life. The SHAQ included a Raynaud's VAS that will also be reported separately.

SMILES: COCCOC(=O)C1=C(C)NC(C)=C(C(=O)OC/C=C/c2ccccc2)C1c1cccc([N+](=O)[O-])c1 (stereo not drawn) [Pooled Cilnidipine]
- SHAQ Alternative Disability Index, Change from Baseline, Max: 0.38
- SHAQ Alternative Disability Index, Change from Baseline, Mean: 0.031
- SHAQ Alternative Disability Index, Change from Baseline, Median: 0.000
- SHAQ Alternative Disability Index, Change from Baseline, Min: −0.13
- SHAQ Alternative Disability Index, Change from Baseline, Q1: −0.125
- SHAQ Alternative Disability Index, Change from Baseline, Q3: 0.125
- SHAQ Alternative Disability Index, Percent Change from Baseline, Max: 100.0%
- SHAQ Alternative Disability Index, Percent Change from Baseline, Mean: 9.68%
- SHAQ Alternative Disability Index, Percent Change from Baseline, Median: −11.11%
- SHAQ Alternative Disability Index, Percent Change from Baseline, Min: −50.0%
- SHAQ Alternative Disability Index, Percent Change from Baseline, Q1: −33.33%
- SHAQ Alternative Disability Index, Percent Change from Baseline, Q3: 42.86%
- SHAQ Visual Analogue Scale - Finger Ulcers, Change from Baseline, Max: 0.40
- SHAQ Visual Analogue Scale - Finger Ulcers, Change from Baseline, Mean: −0.643
- SHAQ Visual Analogue Scale - Finger Ulcers, Change from Baseline, Median: 0.000
- SHAQ Visual Analogue Scale - Finger Ulcers, Change from Baseline, Min: −3.20
- SHAQ Visual Analogue Scale - Finger Ulcers, Change from Baseline, Q1: −1.000
- SHAQ Visual Analogue Scale - Finger Ulcers, Change from Baseline, Q3: 0.000
- SHAQ Visual Analogue Scale - Finger Ulcers, Percent Change from Baseline, Max: 133.3%
- SHAQ Visual Analogue Scale - Finger Ulcers, Percent Change from Baseline, Mean: −17.08%
- SHAQ Visual Analogue Scale - Finger Ulcers, Percent Change from Baseline, Median: −50.82%
- SHAQ Visual Analogue Scale - Finger Ulcers, Percent Change from Baseline, Min: −100.0%
- SHAQ Visual Analogue Scale - Finger Ulcers, Percent Change from Baseline, Q1: −81.37%
- SHAQ Visual Analogue Scale - Finger Ulcers, Percent Change from Baseline, Q3: 47.22%
- SHAQ Visual Analogue Scale - Intestinal Problems, Change from Baseline, Max: 0.60
- SHAQ Visual Analogue Scale - Intestinal Problems, Change from Baseline, Mean: −0.863
- SHAQ Visual Analogue Scale - Intestinal Problems, Change from Baseline, Median: −0.050
- SHAQ Visual Analogue Scale - Intestinal Problems, Change from Baseline, Min: −4.40
- SHAQ Visual Analogue Scale - Intestinal Problems, Change from Baseline, Q1: −1.650
- SHAQ Visual Analogue Scale - Intestinal Problems, Change from Baseline, Q3: 0.150
- SHAQ Visual Analogue Scale - Intestinal Problems, Percent Change from Baseline, Max: 40.0%
- SHAQ Visual Analogue Scale - Intestinal Problems, Percent Change from Baseline, Mean: −43.69%
- SHAQ Visual Analogue Scale - Intestinal Problems, Percent Change from Baseline, Median: −66.06%
- SHAQ Visual Analogue Scale - Intestinal Problems, Percent Change from Baseline, Min: −100.0%
- SHAQ Visual Analogue Scale - Intestinal Problems, Percent Change from Baseline, Q1: −100.00%
- SHAQ Visual Analogue Scale - Intestinal Problems, Percent Change from Baseline, Q3: 30.00%
- SHAQ Visual Analogue Scale - Overall Disease Severity, Change from Baseline, Max: 0.20
- SHAQ Visual Analogue Scale - Overall Disease Severity, Change from Baseline, Mean: −1.450
- SHAQ Visual Analogue Scale - Overall Disease Severity, Change from Baseline, Median: −1.550
- SHAQ Visual Analogue Scale - Overall Disease Severity, Change from Baseline, Min: −3.10
- SHAQ Visual Analogue Scale - Overall Disease Severity, Change from Baseline, Q1: −1.850
- SHAQ Visual Analogue Scale - Overall Disease Severity, Change from Baseline, Q3: −0.950
- SHAQ Visual Analogue Scale - Overall Disease Severity, Percent Change from Baseline, Max: −26.8%
- SHAQ Visual Analogue Scale - Overall Disease Severity, Percent Change from Baseline, Mean: −61.10%
- SHAQ Visual Analogue Scale - Overall Disease Severity, Percent Change from Baseline, Median: −60.00%
- SHAQ Visual Analogue Scale - Overall Disease Severity, Percent Change from Baseline, Min: −100.0%
- SHAQ Visual Analogue Scale - Overall Disease Severity, Percent Change from Baseline, Q1: −76.19%
- SHAQ Visual Analogue Scale - Overall Disease Severity, Percent Change from Baseline, Q3: −44.12%
- SHAQ Visual Analogue Scale - Pain, Change from Baseline, Max: 0.70
- SHAQ Visual Analogue Scale - Pain, Change from Baseline, Mean: −0.375
- SHAQ Visual Analogue Scale - Pain, Change from Baseline, Median: −0.250
- SHAQ Visual Analogue Scale - Pain, Change from Baseline, Min: −2.00
- SHAQ Visual Analogue Scale - Pain, Change from Baseline, Q1: −0.750
- SHAQ Visual Analogue Scale - Pain, Change from Baseline, Q3: 0.150
- SHAQ Visual Analogue Scale - Pain, Percent Change from Baseline, Max: 19.4%
- SHAQ Visual Analogue Scale - Pain, Percent Change from Baseline, Mean: −23.98%
- SHAQ Visual Analogue Scale - Pain, Percent Change from Baseline, Median: −41.18%
- SHAQ Visual Analogue Scale - Pain, Percent Change from Baseline, Min: −55.6%
- SHAQ Visual Analogue Scale - Pain, Percent Change from Baseline, Q1: −53.33%
- SHAQ Visual Analogue Scale - Pain, Percent Change from Baseline, Q3: 11.54%
- SHAQ Visual Analogue Scale - Raynaud’s, Change from Baseline, Max: 1.50
- SHAQ Visual Analogue Scale - Raynaud’s, Change from Baseline, Mean: −0.438
- SHAQ Visual Analogue Scale - Raynaud’s, Change from Baseline, Median: −0.600
